Test results reported in the METLIN SMRT retention time set (Domingo-Almenara et al. 2019).

Experiment: gradient 5% acetonitrile 3 min, to 50% in 2 min, to 85% in 15 min, held 3 min, 100 µL/min
Details: column: Zorbax Extend-C18 2.1 x 50 mm; eluents: water / acetonitrile, 0.1% formic acid
In short: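 Pure standards were analyzed in mixtures of ~100 molecules using HPLC coupled to a quadrupole time-of-flight mass spectrometer, in both positive and negative ionization mode. Separation used a Zorbax Extend-C18 column (2.1 × 50 mm, 1.8 μm) at 100 μL/min, with water and acetonitrile each containing 0.1% formic acid. Dead and dwell volumes were 40 μL and 900 μL, and data were collected over 3 months. Retention time was read from computationally picked adduct peaks, each inspected manually.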

Compound	RP-LC retention time
COC(=O)c1c(C)[nH]c(C(=O)N2CCCC(C(=O)NCc3ccc(N(C)C)cc3)C2)c1C (configuration not stated)	597 s
COCCCNC(=O)c1ccc(-n2nc(C)c3c2CCCC3=O)cc1	660 s
COc1cccc(-c2nnc(Cc3nc(-c4ccc(C)c(C)c4)no3)o2)c1	1120 s
Cc1ccc(-c2noc(CCN3CCN(c4ccccc4)CC3)n2)cc1	751 s
CCn1cnc(S(=O)(=O)N2CCCC(C(=O)NCc3ccc(F)cc3)C2)c1 (configuration not stated)	712 s
O=C(CN1C(=O)NC2(CCCCC2)C1=O)Nc1ccc(F)cc1F	736 s
Cc1c(Cl)cccc1NC(=O)Cn1nc(N(C)C)c2ccccc2c1=O	906 s
CCC(c1cccs1)N1C(=O)[C@H]2CN(S(=O)(=O)c3cccc(C)c3)C[C@H]2C1=O (some centres not stated)	1040 s
Cc1sc(NC(=O)c2ccc(S(=O)(=O)N(C)C)cc2)nc1-c1ccc2c(c1)NC(=O)CO2	842 s
CCC(CC)C(=O)N1CCc2c(c(C(=O)N3CCCC(C(=O)Nc4ccccc4C)C3)nn2C)C1 (configuration not stated)	817 s
CCn1ccc(C(=O)N2CC[C@H]3N(CCOC)S(=O)(=O)CC[C@]3(C(=O)N3CCOCC3)C2)n1	622 s
CCc1nncn1C1CCN(S(=O)(=O)c2ccc(C)cc2C)CC1	738 s
CCOc1ccc(-c2csc(C)n2)cc1S(=O)(=O)Nc1ccc(F)cc1	985 s
CN1C(=O)[C@H]2CN(Cc3cc(F)ccc3F)C[C@H]2C1=O	602 s
Cn1cnc2ccc(-c3noc(CCc4c[nH]c5ccccc45)n3)cc21	731 s
COc1ccc(-c2nnc(-c3ccc(C)c(S(=O)(=O)NC(C)C)c3)o2)cc1OC	873 s
COCC1(O)CCOC2(CCN(Cc3ccccc3F)CC2)C1 (configuration not stated)	544 s
CCOC(=O)c1c(C)c(CCC(=O)NCCN2CCN(C)CC2)n(C)c1C	596 s
Cc1ccc2c(c1)N(C(=O)Cn1cc(-c3noc(-c4ccncc4)n3)nc1C)CCO2	735 s
CNC(=O)c1ccc(-c2nc3cc(NS(=O)(=O)c4ccccc4Cl)ccc3n2C)cc1	633 s
CC(C)(C)c1cc(Br)ccc1OCC(=O)Nc1ncn[nH]1	797 s
O=C(NC1CC1)c1cn(-c2ccc(-c3nc(C4CC4)no3)cn2)cn1	762 s
CC1(C)CCCC2(C)C3=C(CCC12)C(=O)OC3 (configuration not stated)	1270 s

Compound	RP-LC retention time
CC(C)NC(=O)c1nc(N2CCSCC2)c2cnn(C)c2n1	705 s
Cc1ccn2c(=O)cc(CN(C)Cc3ccc(Cl)cc3)nc2c1	631 s
CCc1onc(C)c1C1CCCN1C(=O)Nc1ccc(C)cc1 (configuration not stated)	844 s
CN(C)C(=O)c1ccc2oc(CN3CCN(C(=O)NC4CCCCC4)CC3)nc2c1	614 s
Cc1noc(-c2nn(C)c3c2CN(C(=O)c2cccc(Br)c2)CC3)n1	783 s
CC(C)(C)C(=O)Nc1nnc(SCc2nnc(-c3ccc4c(c3)OCO4)o2)s1	843 s
Cc1cnc(C(=O)N2CCCC2c2nc(CCOCC3CC3)no2)cn1 (configuration not stated)	733 s
Cc1cc(NC(=O)C2CCN(C(=O)c3cc(-c4ccco4)on3)CC2)no1	712 s
CCCS(=O)(=O)NCc1ccc2c(c1)CCN2C(=O)c1ccccc1	810 s
O=C(Cn1nc2nc(Nc3ccc(F)cc3)ccn2c1=O)Nc1ccc(F)cc1	751 s
O=C(NCCC1=CCCCC1)C(=O)NCc1ccsc1	894 s
CCOC(=O)c1ccccc1NC(=O)CN1CCC(Cn2cnc3ccccc32)CC1	556 s
CC(C)Cn1c(CCNC(=O)c2ccccc2)nc2cccnc21	683 s
Cc1nn2c(CNS(=O)(=O)c3cccc(F)c3)c(-c3ccccc3)nc2s1	852 s
O=C(Nc1ccc2c(c1)OCCO2)N1CCC2(CC1)CC(N1CCCC1)CCO2 (configuration not stated)	586 s
O=C(Cc1ccc(F)cc1)NC1CCN(c2cc(-c3cccs3)[nH]n2)C1 (configuration not stated)	707 s
Nc1nc(N2CCN(c3ccccc3F)CC2)ncc1C(=O)Nc1ccccc1	821 s
Cc1ccc(CNC(=O)C2CC(=O)N(c3ccc4oc(C)nc4c3)C2)cc1 (configuration not stated)	732 s
COc1ccc(-c2nc(-c3ccc4oc(C)nc4c3)no2)cn1	1060 s
Cc1ccc(N2CCC(NC(=O)c3ccc(F)cc3)C2=O)cc1C (configuration not stated)	828 s
O=C(NCCCN1CCOCC1)c1cc(-c2ccccn2)nc2ccccc12	592 s
O=C1COc2ccccc2N1Cc1nc(-c2ccc(Cl)c(F)c2)no1	1120 s
Cc1noc(-c2nc(-c3ccc(N(C)C)cc3)no2)n1	1030 s

Compound	RP-LC retention time
Cc1ccc(S(=O)(=O)N2CCC(C(=O)N3CCCC3c3nc(-c4ccccc4C)no3)CC2)cc1 (configuration not stated)	1090 s
Cc1ccc(NC(=O)C2CCN(S(=O)(=O)c3cc(C(=O)N(C)C)cs3)CC2)cc1F	847 s
N#Cc1ccc2[nH]cc(CCCCN3CCN(c4ccc5oc(C(N)=O)cc5c4)CC3)c2c1	702 s
O=C(Cn1cccc(-c2nc(-c3ccc(Br)cc3)no2)c1=O)NCCc1ccccc1	1060 s
O=C(Nc1ccc(C(F)(F)F)cc1)c1cnc(-c2ccccc2)nc1-c1ccncc1	1010 s
O=C([C@@H]1C[C@H](F)CN1C(=O)c1ccco1)N1CCCCC1	626 s
CCOc1ccc(C(=O)N2CCN(c3ccc(-c4nc(CC)cs4)cn3)CC2)cc1	987 s
CCn1c(=O)c(C)nc2cc(-c3noc(-c4ccc(N(C)C)cc4)n3)ccc21	1140 s
CCc1ccccc1NC(=O)N1CCC(N(CCC(C)C)C2CCOCC2)CC1	665 s
NCCC1CCN(C(=O)Nc2ccccc2)CC1	577 s
CN(C)S(=O)(=O)c1ccc(C(=O)Nc2sc(-c3ccccc3)cc2C(N)=O)cc1	925 s
CCc1noc2nc(C)n(CC(=O)NCc3ccc(F)cc3)c(=O)c12	797 s
Cc1cc(C(=O)NC2CCCC2)nn1C	680 s
Cc1cc(=O)n(CC(=O)Nc2ccc(Br)cc2F)c(N2CCN(c3ccccc3)CC2)n1	978 s
COC(=O)c1c(NCc2cc(F)cc(F)c2)c2cccc(Cl)c2[nH]c1=O	808 s
O=C(NCC1CCCO1)C1CCCN(c2ncnc3c2oc2ccccc23)C1 (configuration not stated)	656 s
CCc1nc2c(c(=O)n1CC(=O)NCCC1=CCCCC1)CN(Cc1ccccc1)CC2	696 s
O=C(Cc1cccs1)N1CCC(c2nnc(C(F)(F)F)o2)CC1	752 s
CC(C)CCNC(=O)C1(C)Cn2nc(C(=O)NCc3ccccc3)cc2C(=O)N1C (configuration not stated)	712 s
O=C(NC1CCCCCC1)c1ccc(-c2cncnc2)nc1	764 s
COc1cc(NC(=O)CN2CCN(Cc3ccccc3)C(=O)C2=O)cc(OC)c1OC	669 s
CC(C)NCc1ccc(-c2cc(Cl)ccc2Cl)o1	709 s
Cc1c(Cl)cccc1Nc1c(-c2ccc(N3CCOCC3)cc2)nc2cnccn12	916 s

Compound	RP-LC retention time
COc1cccc(CCC(=O)N2CCn3cnnc3C2)c1	584 s
CCOC(=O)c1cnc2nc(C)ccc2c1Nc1ccc(F)c(C#N)c1	684 s
COc1ccc(CCC(=O)Nc2nc(-c3cccc(Br)c3)cs2)cc1	1150 s
CCCNC(=O)C1CCCN(c2ccc(SCC(=O)Nc3cccc(Br)c3)nn2)C1 (configuration not stated)	730 s
CC(C)CNC(=O)C1(CCO)CCN(Cc2ccccc2)C1 (configuration not stated)	589 s
CCOc1ccccc1C(=O)NCc1nc(C)no1	684 s
Cc1ccc(CC(=O)Nc2cnn(C)c(=O)c2N2CCOCC2)cc1	764 s
O=C(Nc1ccc(CN2CCCCC2)cc1)C1CCCN(c2ncnc3c2nc2n3CCCCC2)C1 (configuration not stated)	1050 s
CC(O)(CNS(=O)(=O)c1cccnc1)c1ccco1 (configuration not stated)	604 s
Cc1ccc(NC(=O)Cn2nc3c(Oc4cccc(F)c4)nccn3c2=O)c(F)c1	878 s
COCC1CN(S(=O)(=O)c2cc(F)ccc2OC)CC12CCNCC2 (configuration not stated)	611 s
COc1ccc(S(=O)(=O)N2CCC(Cc3nncn3C)CC2)cc1	657 s
COc1ccccc1-c1nc2nccc(-c3ccncc3)n2n1	654 s
COc1ccc(OC)c(-c2csc(-c3nnn(-c4ccc(C)cc4)c3N)n2)c1	1160 s
COCCNC(=O)c1ccc(-c2nc(CSc3ccccc3)c(C)o2)cc1	882 s
COCCNC(=O)N1CCCn2nc(-c3ccc(OC)cc3)cc2C1	660 s
Cn1cccc1C(=O)N1CCC(COc2ccc(C(=O)N3CCCCC3)cc2)CC1	897 s
CC1CCCCN1CCNC(=O)C1CCN(c2nc3cccnc3s2)CC1 (configuration not stated)	582 s
COc1ccccc1N1CCN(C(=O)c2sc3ncccc3c2-n2cccc2)CC1	963 s
CC(=O)N1CCN(C(=O)c2ccc(O)cc2)CC1	515 s
COc1ccc(OC)c(-c2cn3ccn(-c4ccc(F)c(Cl)c4)c(=O)c3n2)c1	929 s
Cc1ccc(CNC2=NCCNC23CCN(S(=O)(=O)c2ccc(Cl)cc2)CC3)cc1	778 s
O=C1NC(C(=O)NCc2ccco2)Cn2cccc21 (configuration not stated)	605 s
